Assay results taken from patent US20180153886A1, “USE OF TR[…] PREPARATION OF DRUGS FOR PREVENTING AND TREATING LIVER DISEASES” (priority 2015, published 2018).

Tests used:
liver failure patients [1] = assay: Single-center cohort clinical trial, trimetazidine (TMZ) vs DCA control, liver function indicators ALT/AST; format: in vivo, human; conditions: after 5 days of treatment, FIG. 2
From the text: Evaluate if trimetazidine is capable of improving the liver function of patients with hepatic failure.
The single-center cohort study was adopted as the clinical trial method.
In accordance with relevant references and the results of previous trails, the number of cases shall be no less than 50. Taking into account the number of loss to follow up and possible drop-out (to be controlled around 10%), 60 cases are required to be selected (30 cases for the trial group and 30 cases for the control group).
All serious hepatitis patients enrolled between Aug. 19, 2014 and […] were put in the control group; and all those enrolled between December 9 and the application date were in the trial group.
2. Exclusion Criteria • Patients under 18 or over 70 years old; • patients diagnosed with shock liver (ischemic liver disease); • patients with liver failure in pregnance or HELLP syndrome; • patients with liver failure secondary to malignant tumor in the liver; • patients with refractory hypotension • patients with septic shock; • patients about to receive liver transplant (within 8 hours); • patients allergic to trimetazidine drug; • patients […] of trimetazidine drug; • abuser of drugs and/or alcohol; • pregnant or lactation women; • patients with recent myocardial infarct (within half a year); • patients with serious renal inadequacy.
2. Control group: Diisopropylamine Dichloroacetate (DCA) (80 mg/D) for the control group in this trial, provided by Dandong Yichuang Pharmaceutical Co., Ltd, for a 4-week course of treatment.
3. […] HBV-related liver failure patients were also treated with lamivudine.
1. Alanine aminotransferase (ALT), tested by chromatometry, with products provided by Roche Diagnostics (Shanghai) Ltd.
2. Aspartate transaminase (AST), tested by chromatometry, with products provided by Roche Diagnostics (Shanghai) Ltd.

liver failure patients [2] = assay: Clinical trial involving 165 cases of liver failure, TMZ vs traditional therapeutic approach (general treatment); format: in vivo, human
[3] = tested on: patients with liver failure / serious hepatitis; assay: Clinical cases: individual patients given oral TMZ on top of combined treatment; format: in vivo, human
From the text: Case 1: The patient had past positive HBsAg for over 20 years, during which they took multiple reexaminations of liver function and, as the results of all color ultrasound examinations were within normal range, they were not given any special treatment. Three months before, after catching cold and overwork, they developed abdominal distension and yellow urine, and was admitted to hospital following aggravation of the condition over 6 days. On admission, they were complicated with massive seroperitoneum and serious xanthochromia throughout the skin and mucosa of their whole body, feeling serious nausea, anorexia and feebleness.
Case 2: had had yellow urine for 25 days and dry mouth and bitter taste in mouth for 10 days before they came to the First Affiliated Hospital of Zhengzhou University. […] If they had been treated with the original approach, it would probably have taken two months before they could be discharged from hospital.
Case 3: had past positive HBsAg for 8 years, without regular treatment or periodic reexamination of relevant indicators. […] They took orally some “stomach medicine” (specific medicine not known) with poor effect. After the aforesaid symptoms aggravated for half a month, with urine turning as yellow as strong tea water, they were admitted to the First Affiliated Hospital of Zhengzhou University on Jan. 21, 2015. […] In merely 12 days, the patient achieved decrease of transaminase by dozens of times, relief from the critical condition, alleviated hepatocyte inflammatory responses and a favorable condition for liver cells, and greatly shortened length of hospitalization.
Case 4: […] They felt abdominal distension and nausea, accompanied with hydroncus in lower limbs, when they got tired half a month ago. For further treatment, they were admitted to the First Affiliated Hospital of Zhengzhou University on Jan. 13, 2015. Color ultrasound examination of abdomen detected diffuse changes of echo patterns of liver, cholecystolithiasis and cholecystitis. […] The patient's liver enzyme decreased to normal level after a short period, meeting the requirements for a surgical operation. Following the operation, their abdominal pain disappeared, with liver enzyme back to normal level and improved appetite. Their quality of life improves now without any discomfort.
Case 5: had past positive HBsAg for over 10 years, with HBsAg (+), HBeAg (+) and HBcAb (+), and had atrial fibrillation over 5 years, during which they orally took traditional Chinese medicine intermittently, but without regular treatment. They complained of feebleness, nausea, dry mouth and bitter taste, and anorexia for 6 days, and was hospitalized on Jan. 31, 2015. After admission, they had ALT 1881 u/L, AST 699 u/L, and prothrombin time activity (PTA) at 26%. The patient was extremely weak, in very poor spirits, with very poor appetite. A notice of critical illness diagnosis was given. […] The patient achieved a rapid decrease of transaminase and obvious improvement of liver synthesis function, and was safe from the critical condition. They continued to take the medicine till maturity of the treatment course, to improve the hepatocyte microcirculation and excretion of bilirubin. The patient soon recovered and left hospital.

[4] = in vivo; listed as trimetazidine, dihydrochloride; cited from earlier work
[5] = Case 5, one week plus another 5 days of TMZ

In the case of `COc1ccc(CN2CCNCC2)c(OC)c1OC.Cl.Cl` [TMZ, 1-[2,3,4-trimethoxybenzyl] piperazine dihydrochloride], the “ALT decrease (k, mathematical model analysis)” value (liver failure patients [1]) is reported as 259.4, the “AST decrease (k, mathematical model analysis)” value (liver failure patients [1]) is reported as 362.53 and the 30-day immortality rate (liver failure patients [2]; TMZ 20 mg tablet orally 3 times a day, 4 weeks, traditional therapeutic approach 44%, FIG. 5) is reported as “approximately 18%”. For the same molecule, the 90-day immortality rate (liver failure patients [2]; TMZ 20 mg tablet orally 3 times a day, 4 weeks, traditional therapeutic approach 68%, FIG. 5) was 35%, the “decrease rate of alanine aminotransferase and aspartate transaminase” value (liver failure patients [2]; laboratory test indicators, FIG. 3) was “significantly raise the decrease rate” and the “serious adverse reaction during the clinical trial” value (liver failure patients [2]; liver failure patients) was “no serious adverse reaction occurred”. The “hepatic glucose metabolism (PET-CT)” value (liver failure patients [2]; one liver failure patient, before vs after taking TMZ, FIG. 4) was “remarkably improved”, the AST ([3]; Case 1, 12 days after start of TMZ, on admission AST 303 u/L) was 68 u/L and the ALT ([3]; Case 1, HBsAg positive, 12 days after start of TMZ 1 tablet 3 times a day, on admission ALT 270 u/L) was 41 u/L. The total bilirubin ([3]; Case 2, oral TMZ for 20 days, on admission 401.9 umol/L) was 130 µmol/L, the AST ([3]; Case 2, oral TMZ for 20 days, on admission AST 484 u/L) was 52 u/L and the ALT ([3]; Case 2, serious drug-induced hepatitis, oral TMZ for 20 days, on admission ALT 983 u/L) was 95 u/L. For the same molecule, the ALT ([3]; Case 3, acute-on-chronic liver failure, admitted Jan. 21, 2015, reexamination February 5, on admission ALT 1386 u/L) was 76 u/L, the “prothrombin time activity (PTA)” value ([3]; Case 3, reexamination February 5, on admission 27.4%) was 57.8% and the AST ([3]; Case 3, reexamination February 5, on admission AST 1368 u/L) was 85 u/L. The ALT ([3]; Case 4, HBsAg positive, oral TMZ for 13 days, on admission ALT 599 u/L) was 66 u/L, the AST ([3]; Case 4, oral TMZ for 13 days, on admission AST 663 u/L) was 79 u/L and the “prothrombin time activity (PTA)” value ([3]; Case 5, one week after start of oral TMZ, after admission 26%) was 48%. The ALT ([3]; Case 5, one week after start of oral TMZ, after admission ALT 1881 u/L) was 255 u/L, the AST ([3]; Case 5, one week after start of oral TMZ, after admission AST 699 u/L) was 77 u/L and the ALT [3, 5] was 117 u/L. For the same molecule, the AST [3, 5] was 226 u/L, the “prothrombin time activity (PTA)” value [3, 5] was 50% and the elimination half-life [4] was “approximately 6 hours”.

In the case of Diisopropylamine Dichloroacetate [DCA], the “ALT decrease (k, mathematical model analysis)” value (liver failure patients [1]) is reported as 67.325 and the “AST decrease (k, mathematical model analysis)” value (liver failure patients [1]) is reported as 142.77.
